Source: patent US4340725A (priority 1979, dated 1982)
In brackets after ≈: the same amount, converted by molar mass.

What was measured:
Sarcoma 180 solid tumor = experiment: Effect on sarcoma 180 solid tumor; type: in vivo, ddY-strain mice; conditions: 7 days after implantation
Procedure: Six male ddY-strain mice having a weight of about 20 g are used for each group as test animals; and 5×10^6 cells of Sarcoma 180 ascites tumor are implanted subcutaneously in the animals. After 24 hours following implantation, 0.2 ml phosphate buffered saline (PBS) containing DC-38-V in various concentrations is administered intraperitoneally.
Then the suspension is diluted with PBS to obtain suspensions having various concentrations of test compound.
As a control, PBS solution containing Tween 80 is used. The test animals are not affected by the control solution. PBS comprises 0.8 g/dl NaCl, 0.02 g/dl KCl, […] Na2 HPO4, and 0.02 g/dl KH2 PO4 (pH 7.2).
(§1) For comparison, 0.2 ml PBS solution containing mitomycin C is administered to a group of animals intraperitoneally at the same time as the test compound.
Seven days after implantation, the average tumor volume (mm^3) and T/C (T: average tumor volume of the group treated with the test compound, C: that of control) are determined.

acute toxicity = conditions: mouse, in vivo, ip; mice, intraperitoneally
Procedure: The acute toxicity (LD50) of DC-38-V is >1000 mg/kg when the test compound is administered intraperitoneally to mice.

Solubility of DC-38-V = type: physicochemical
[1] = tested on: Salmonella typhosa ATCC 9992; experiment: in vitro antibacterial spectra, agar dilution method (pH 7.0); type: cell-based; conditions: Salmonella enterica, read-out: Minimum Inhibitory Concentration (MIC)
Text: (§2) The in vitro antibacterial spectra of DC-38-V determined by the agar dilution method (pH 7.0) is illustrated in the following Table 7.

[2] = tested on: Bacillus subtilis No. 10707; experiment: as above; type: cell-based; conditions: read-out: Minimum Inhibitory Concentration (MIC)
Text: as §2

[3] = tested on: Staphylococcus aureus ATCC 6538 P; experiment: as above; type: cell-based; conditions: ATCC6538, read-out: Minimum Inhibitory Concentration (MIC)
Text: as §2

[4] = tested on: Klebsiella pneumoniae ATCC 10031; experiment: as above; type: cell-based; conditions: ATCC10031, read-out: Minimum Inhibitory Concentration (MIC)
Text: as §2

[5] = tested on: Shigella sonnei ATCC 9290; experiment: as above; type: cell-based; conditions: ATCC9290, read-out: Minimum Inhibitory Concentration (MIC)
Text: as §2

Escherichia coli ATCC 26 = experiment: as above; type: cell-based; conditions: ATCC26, read-out: Minimum Inhibitory Concentration (MIC)
Text: as §2

MH 134 ascites tumor = experiment: Effect on MH 134 ascites tumor; type: in vivo, C3H-strain mice; conditions: for Long term survivors (LTS): ≥40 days
Procedure: Six male C3H-strain mice having a weight of about 20 g are used for each group as test animals; and 5×10^6 cells of MH 134 ascites tumor are implanted in the animals intraperitoneally. After 24 hours following implantation, 0.2 ml PBS suspension containing DC-38-V in various concentrations is administered intraperitoneally.
as §1

[6] = tested on: Ehrlich ascites carcinoma; experiment: Effect on Ehrlich ascites carcinoma; type: in vivo, ddY-strain mice; conditions: for LTS: ≥60 days
Procedure: Five male ddY-strain mice having a weight of about 20 g are used for each group as test animals; and 5×10^6 cells of Ehrlich ascites carcinoma are implanted in the animals intraperitoneally. After 24 hours following implantation or once a day for five days from 24 hours after implantation, 0.2 ml PBS suspension containing DC-38-V in various concentrations is administered intraperitoneally.
For comparison, mitomycin C is used as test compound.

[7] = tested on: Lymphocytic leukemia P-388 tumor; experiment: Effect on Lymphocytic leukemia P-388 tumor; type: in vivo, CDF1 mice
Procedure: Five male CDF1 mice having a weight of about 22 g are used for each group as test animals; and 1×10^6 cells of Lymphocytic leukemia P-388 tumor are implanted intraperitoneally in the test animals. Twenty-four hours following implantation, 0.2 ml PBS solution containing DC-38-V in various concentrations is administered intraperitoneally.
For comparison, 0.2 ml PBS solution containing mitomycin C is administered to a group of test animals intraperitoneally at the same time as the test compound.

[8] = Stability (solid; acidic, neutral, alkaline liquid; sun light or shielding); type: physicochemical
Text: The stability of compound is illustrated in Table 1.

[9] = 25 × 5 mg/kg i.p., once a day for five days
[10] = 50 × 5 mg/kg i.p., once a day for five days
[11] = 100 × 5 mg/kg i.p., once a day for five days

## C=Cc1cc(OC)c2c(c1)c(=O)oc1c2cc(OC)c2c(O)ccc(C3OC(C(C)O)C(O)C3O)c21 (stereo not shown) [DC-38-V]
Sarcoma 180 solid tumor; 100 mg/kg i.p.
  T/C (average tumor volume): 0.76
  average tumor volume (V): 1,085 mm^3
Sarcoma 180 solid tumor; 200 mg/kg i.p.
  T/C (average tumor volume): 0.62
  average tumor volume (V): 874 mm^3
Sarcoma 180 solid tumor; 400 mg/kg i.p.
  T/C (average tumor volume): 0.40
  average tumor volume (V): 562 mm^3
Acute toxicity
  LD50: > 1000 mg/kg
Solubility of DC-38-V; acetone
  Solubility: slightly soluble
Solubility of DC-38-V; benzene
  Solubility: slightly soluble
Solubility of DC-38-V; chloroform
  Solubility: slightly soluble
Solubility of DC-38-V; dimethylformamide
  Solubility: soluble
Solubility of DC-38-V; dimethylsulfoxide
  Solubility: soluble
Solubility of DC-38-V; ether
  Solubility: almost insoluble
Solubility of DC-38-V; ethyl acetate
  Solubility: slightly soluble
Solubility of DC-38-V; methanol
  Solubility: slightly soluble
Solubility of DC-38-V; petroleum ether
  Solubility: almost insoluble
Solubility of DC-38-V; pyridine
  Solubility: soluble
Solubility of DC-38-V; tetrahydrofuran
  Solubility: soluble
Solubility of DC-38-V; water
  Solubility: almost insoluble
[1]
  MIC: > 75 µg/mL
[2]
  MIC: 0.0375 µg/mL (≈ 0.0758 µM)
[3]
  MIC: 0.0375 µg/mL (≈ 0.0758 µM)
[4]
  MIC: > 75 µg/mL
[5]
  MIC: > 75 µg/mL
Escherichia coli ATCC 26
  MIC: 18.8 µg/mL (≈ 37.9 µM)
MH 134 ascites tumor; 100 mg/kg i.p.
  ILS: > 184%
  MST: > 31.5 days
  Long term survivors (LTS): 3/6
MH 134 ascites tumor; 200 mg/kg i.p.
  ILS: > 310%
  MST: > 53.0 days
  Long term survivors (LTS): 6/6
MH 134 ascites tumor; 400 mg/kg i.p.
  ILS: > 231%
  MST: > 39.5 days
  Long term survivors (LTS): 2/6
[6]; [9]
  ILS: > 315%
  MST: > 49.8 days
  LTS: 3/5
[6]; 50 × 1 mg/kg i.p.
  ILS: 114%
  MST: 17.4 days
  LTS: 0/5
[6]; [10]
  ILS: > 358%
  MST: > 56.6 days
  LTS: 4/5
[6]; 100 × 1 mg/kg i.p.
  ILS: > 202%
  MST: > 30.6 days
  LTS: 1/5
[6]; [11]
  ILS: > 380%
  MST: > 60 days
  LTS: 5/5
[6]; 200 × 1 mg/kg i.p.
  ILS: > 264%
  MST: > 40.2 days
  LTS: 2/5
[6]; 400 × 1 mg/kg i.p.
  ILS: > 275%
  MST: > 41.8 days
  LTS: 2/5
[7]; 50 mg/kg i.p.
  increased life span (ILS): 138%
  mean survival time (MST): 13.4 days
[7]; 100 mg/kg i.p.
  increased life span (ILS): 141%
  mean survival time (MST): 14.5 days
[7]; 200 mg/kg i.p.
  increased life span (ILS): 155%
  mean survival time (MST): 16.0 days
[7]; 400 mg/kg i.p.
  increased life span (ILS): 162%
  mean survival time (MST): 16.7 days
[8]; Liquid acidic, shielding
  Stability: stable
[8]; Liquid alkaline, shielding
  Stability: unstable
[8]; Liquid alkaline, sun light
  Stability: unstable
[8]; Liquid neutral, shielding
  Stability: stable
[8]; Solid, shielding
  Stability: stable
[8]; Solid, sun light
  Stability: unstable

## CO[C@@]12[C@H](COC(N)=O)C3=C(C(=O)C(C)=C(N)C3=O)N1C[C@@H]1N[C@@H]12 [Mitomycin C, mitomycin C, reference compound]
Sarcoma 180 solid tumor; 4.2 mg/kg i.p.
  T/C (average tumor volume): 0.37
  average tumor volume (V): 529 mm^3
MH 134 ascites tumor; 1.05 mg/kg i.p.
  ILS: 106%
  MST: 18.1 days
  Long term survivors (LTS): 0/6
MH 134 ascites tumor; 2.1 mg/kg i.p.
  ILS: 116%
  MST: 19.8 days
  Long term survivors (LTS): 0/6
MH 134 ascites tumor; 4.2 mg/kg i.p.
  ILS: 120%
  MST: 20.5 days
  Long term survivors (LTS): 0/6
MH 134 ascites tumor; 8.4 mg/kg i.p.
  ILS: 55%
  MST: 9.4 days
  Long term survivors (LTS): 0/6
[6]; 2.1 × 1 mg/kg
  ILS: 122%
  MST: 18.6 days
  LTS: 0/5
[6]; 4.2 × 1 mg/kg
  ILS: > 203%
  MST: > 30.8 days
  LTS: 1/5
[6]; 5.6 × 1 mg/kg
  ILS: 122%
  MST: 18.6 days
  LTS: 0/5
[7]; 4.2 mg/kg i.p.
  increased life span (ILS): 160%
  mean survival time (MST): 16.5 days
